In one experiment the target is T1, Thromboxane A2 receptor (Rattus norvegicus, UniProt P34978).
T1 sequence (P34978 whole entry): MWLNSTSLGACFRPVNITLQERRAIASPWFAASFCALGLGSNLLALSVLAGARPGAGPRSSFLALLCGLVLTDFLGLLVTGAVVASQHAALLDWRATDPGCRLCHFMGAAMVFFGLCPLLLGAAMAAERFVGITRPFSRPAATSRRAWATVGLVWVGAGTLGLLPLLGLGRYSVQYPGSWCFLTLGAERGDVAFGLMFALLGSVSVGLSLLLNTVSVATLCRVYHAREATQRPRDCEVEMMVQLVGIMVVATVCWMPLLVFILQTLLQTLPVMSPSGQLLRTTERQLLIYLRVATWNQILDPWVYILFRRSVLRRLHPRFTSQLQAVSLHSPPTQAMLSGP
Put plainly: In vitro Thromboxane A2 (TXA2) receptor antagonism was tested by its ability to inhibit the contraction of rat aorta induced by the stable thromboxane agonist U-46,619. Conditions: read-out: pA2 (converted). The class given is functional, tissue-based.

The next experiment concerns the target T2, Thromboxane-A synthase (Homo sapiens, UniProt P24557).
T2 sequence (P24557 whole entry): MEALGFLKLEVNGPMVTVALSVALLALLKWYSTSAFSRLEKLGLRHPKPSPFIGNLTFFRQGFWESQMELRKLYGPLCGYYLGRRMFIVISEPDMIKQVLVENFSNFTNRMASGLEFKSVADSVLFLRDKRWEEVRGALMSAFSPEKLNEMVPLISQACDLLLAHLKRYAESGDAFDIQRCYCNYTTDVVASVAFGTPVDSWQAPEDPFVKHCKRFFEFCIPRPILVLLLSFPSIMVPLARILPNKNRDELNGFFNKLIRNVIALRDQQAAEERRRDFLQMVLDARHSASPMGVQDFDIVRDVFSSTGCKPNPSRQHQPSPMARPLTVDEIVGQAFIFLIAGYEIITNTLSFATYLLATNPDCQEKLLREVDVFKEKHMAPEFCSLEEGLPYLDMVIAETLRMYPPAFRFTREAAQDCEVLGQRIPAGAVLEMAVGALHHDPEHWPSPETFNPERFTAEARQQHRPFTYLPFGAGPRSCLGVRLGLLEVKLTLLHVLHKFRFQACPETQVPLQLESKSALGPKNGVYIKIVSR
Put plainly: Inhibitory activity against Thromboxane A2 synthase from human platelet microsomes.

In experiment [1] the test system is Thromboxane A2 receptor (Canis lupus familiaris). Description: Tested for the peroral dose required to maintain complete thromboxane receptor antagonism for > 12 hours.
Experiment [2] shares this test system. Description: Tested for peroral dose required to cause complete blockade of the response to the thromboxane receptor agonist U-46,619 (1 uM) for 48 hours.

The text below walks through data of ChEMBL document CHEMBL1130914, “Thromboxane modulating agents. 4. Design and synthesis of 3-(2-[[(4-chlorophenyl)sulfonyl]-amino]ethyl)benzenepropanoic acid derivatives as potent thromboxane receptor antagonists” (Bioorg Med Chem Lett, 1998).

On to `CC(c1ccc(F)cc1)c1cc(CCNS(=O)(=O)c2ccc(Cl)cc2)cc(CCC(=O)O)c1` (stereo not drawn), for which, at Thromboxane A2 receptor, the Kb is 0.00398 nM.
As to `COc1ccc(Cc2cc(CCNS(=O)(=O)c3ccc(Cl)cc3)cc(CCC(=O)O)c2)cc1`, the Kb at Thromboxane A2 receptor is 0.00398 nM.
For `N#Cc1ccc(C(=O)c2cc(CCNS(=O)(=O)c3ccc(Cl)cc3)cc(CCC(=O)O)c2)cc1`, the Kb at Thromboxane A2 receptor was 0.0398 nM.
`COc1ccc(C(=O)c2cc(CCNS(=O)(=O)c3ccc(Cl)cc3)cc(CCC(=O)O)c2)cc1`: the Kb on Thromboxane A2 receptor is 0.0251 nM.
On the same count and under the same terms, then `CS(=O)(=O)c1ccc(C(=O)c2cc(CCNS(=O)(=O)c3ccc(Cl)cc3)cc(CCC(=O)O)c2)cc1`, with 0.316 nM; and `O=C(O)CCc1cccc(CCNS(=O)(=O)c2ccc(Cl)cc2)c1`, with 2 nM; and `O=C(O)CCc1cc(CCNS(=O)(=O)c2ccc(Cl)cc2)cc(C(=O)c2ccc(F)cc2)c1`, with 0.1 nM.
`COc1ccccc1Cc1cc(CCNS(=O)(=O)c2ccc(Cl)cc2)cc(CCC(=O)O)c1`: at Thromboxane A2 receptor, the Kb is 0.0631 nM.
On to `O=C(O)CCc1cc(CCNS(=O)(=O)c2ccc(Cl)cc2)cc(Cc2ccncc2)c1`, for which, on Thromboxane A2 receptor, the Kb was 0.00251 nM. For the same compound, on Thromboxane-A synthase, the IC50 (as a rule, the concentration at which inhibition is half-maximal) stood at 47 nM.
Consider `CS(=O)(=O)c1ccc(Cc2cc(CCNS(=O)(=O)c3ccc(Cl)cc3)cc(CCC(=O)O)c2)cc1`, for which the Kb on Thromboxane A2 receptor is 0.0631 nM.
On the same count and under the same terms, then `O=C(O)CCc1cc(CCNS(=O)(=O)c2ccc(Cl)cc2)cc(Cc2cccc(F)c2)c1`, with 0.0794 nM.
The same measure, in the same setting: then `O=C(O)CCc1cc(CCNS(=O)(=O)c2ccc(Cl)cc2)cc(C(O)c2ccc(F)cc2)c1` (stereo not drawn), with 0.2 nM.
On the same count and under the same terms, then `O=C(O)CCc1cc(CCNS(=O)(=O)c2ccc(Cl)cc2)cc(Cc2cccnc2)c1`, with 0.398 nM.
As for `O=C(O)CCc1cc(CCNS(=O)(=O)c2ccc(Cl)cc2)cc(Cc2ccc(F)cc2)c1`, the Activity in experiment [1] was 0.1 mg/kg; in experiment [2] it was 1 mg/kg. For the same compound, the Kb on Thromboxane A2 receptor is 0.0251 nM.
Regarding `O=C(O)CCc1cc(CCNS(=O)(=O)c2ccc(Cl)cc2)cc(Cc2ccccc2)c1`, the Kb on Thromboxane A2 receptor was 0.0158 nM.
